Measured values: PubChem BioAssay AID330 (DTP/NCI, 2004)
Where “and” joins values, the source holds several entries; their conditions need not be identical. Equal values may be shown once. Inconclusive results and toxic doses are left out.

Test system: P388 leukemia ip, CD2F1 mice, survival T/C
Test: NCI In Vivo Anticancer Drug Screen. Data for tumor model P388 Leukemia (intraperitoneal) in CD2F1 (CDF1) mice
Settings: endpoint: median survival time, higher = longer survival
Method in brief: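 Mice carrying the transplanted tumor received test compound or vehicle. Survival was recorded in each group, and the value is the treated-group measurement divided by that of the vehicle-treated control group.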

[1] = dose: 15.0 mg/kg/injection, schedule: Q01DX005 (ip), vehicle: saline with Tween-80
[2] = dose: 30.0 mg/kg/injection, schedule: Q01DX005 (ip), vehicle: saline with Tween-80
[3] = dose: 60.0 mg/kg/injection, schedule: Q01DX005 (ip), vehicle: saline with Tween-80
[4] = dose: 120.0 mg/kg/injection, schedule: Q01DX005 (ip), vehicle: saline with Tween-80
[5] = dose: 240.0 mg/kg/injection, schedule: Q01DX005 (ip), vehicle: saline with Tween-80
[6] = dose: 12.5 mg/kg/injection, schedule: Q01DX009 (ip), vehicle: Klucel (hydroxypropylcellulose) (HPC)
[7] = dose: 25.0 mg/kg/injection, schedule: Q01DX009 (ip), vehicle: Klucel (hydroxypropylcellulose) (HPC)
[8] = dose: 50.0 mg/kg/injection, schedule: Q01DX009 (ip), vehicle: Klucel (hydroxypropylcellulose) (HPC)
[9] = dose: 100.0 mg/kg/injection, schedule: Q01DX009 (ip), vehicle: Klucel (hydroxypropylcellulose) (HPC)
[10] = dose: 100.0 mg/kg/injection, schedule: Q01DX009 (ip), vehicle: saline with Tween-80
[11] = dose: 200.0 mg/kg/injection, schedule: Q01DX009 (ip), vehicle: saline with Tween-80
[12] = dose: 400.0 mg/kg/injection, schedule: Q01DX009 (ip), vehicle: saline with Tween-80
[13] = dose: 50.0 mg/kg/injection, schedule: Q01DX005 (ip), vehicle: saline
[14] = dose: 100.0 mg/kg/injection, schedule: Q01DX005 (ip), vehicle: saline
[15] = dose: 200.0 mg/kg/injection, schedule: Q01DX005 (ip), vehicle: saline
[16] = dose: 50.0 mg/kg/injection, schedule: Q01DX005 (ip), vehicle: Klucel (hydroxypropylcellulose) (HPC)
[17] = dose: 100.0 mg/kg/injection, schedule: Q01DX005 (ip), vehicle: Klucel (hydroxypropylcellulose) (HPC)
[18] = dose: 200.0 mg/kg/injection, schedule: Q01DX005 (ip), vehicle: Klucel (hydroxypropylcellulose) (HPC)
[19] = dose: 50.0 mg/kg/injection, schedule: Q01DX009 (ip), vehicle: saline
[20] = dose: 100.0 mg/kg/injection, schedule: Q01DX009 (ip), vehicle: saline
[21] = dose: 200.0 mg/kg/injection, schedule: Q01DX009 (ip), vehicle: saline
[22] = dose: 50.0 mg/kg/injection, schedule: Q01DX005 (ip), vehicle: saline with Tween-80
[23] = dose: 100.0 mg/kg/injection, schedule: Q01DX005 (ip), vehicle: saline with Tween-80
[24] = dose: 200.0 mg/kg/injection, schedule: Q01DX005 (ip), vehicle: saline with Tween-80
[25] = dose: 50.0 mg/kg/injection, schedule: Q04DX003 (ip), vehicle: saline with Tween-80
[26] = dose: 100.0 mg/kg/injection, schedule: Q04DX003 (ip), vehicle: saline with Tween-80
[27] = dose: 200.0 mg/kg/injection, schedule: Q04DX003 (ip), vehicle: saline with Tween-80
[28] = dose: 25.0 mg/kg/injection, schedule: Q01DX005 (ip), vehicle: saline with Tween-80

CCOC(=O)c1[nH]cnc1N was tested, and the T/C [1] was 104 % of control, the T/C [2] was 101 % of control and the T/C [3] was 104 % of control and 106 % of control. The T/C [4] was 100 % of control and the T/C [5] was 104 % of control.
For CN(C)CCCn1c(=O)nc2n(-c3ccccc3)c3ccccc3nc-2c1=O, the T/C (dose: 6.25 mg/kg/injection, schedule: Q01DX009 (ip), vehicle: Klucel (hydroxypropylcellulose) (HPC)) was 100 % of control and 106 % of control, the T/C [6] was 105 % of control and the T/C [7] was 109 % of control. The T/C [8] was 122 % of control.
For NNC(=O)C1CCN1C(c1ccccc1)c1ccccc1 (configuration not stated), the T/C [6] was 106 % of control, the T/C [7] was 102 % of control and the T/C [8] was 102 % of control. For the same compound, the T/C [9] was 95 % of control.
Fc1ccc(CSc2ncnc3nc[nH]c23)cc1 was tested, and the T/C [10] was 90 % of control, the T/C [11] was 100 % of control and the T/C [12] was 100 % of control.
With CC1=CC2=C(C=O)C(=O)[C@](C)(O)[C@@H](O)C2=CO1 the T/C (dose: 12.5 mg/kg/injection, schedule: Q01DX009 (ip), vehicle: saline with Tween-80) was 109 % of control and the T/C (dose: 25.0 mg/kg/injection, schedule: Q01DX009 (ip), vehicle: saline with Tween-80) was 118 % of control.
For CCCCCCCCSCCN(CC)CC, the T/C [13] was 104 % of control, the T/C [14] was 103 % of control and the T/C [15] was 95 % of control.
With CCOC([O-])=N/C(=N/[n+]1ccccc1)c1ccccc1 the T/C [8] was 107 % of control, the T/C [9] was 96 % of control and the T/C (dose: 200.0 mg/kg/injection, schedule: Q01DX009 (ip), vehicle: Klucel (hydroxypropylcellulose) (HPC)) was 100 % of control.
For COc1cc(C2SCC(=O)N2c2nnc(C)s2)cc(OC)c1OC (configuration not stated), the T/C [16] was 97 % of control, the T/C [17] was 89 % of control and the T/C [18] was 89 % of control.
For O=S1(=O)CCC(N2CCCCC2)C1 (configuration not stated), the T/C (dose: 25.0 mg/kg/injection, schedule: Q01DX009 (ip), vehicle: saline) was 102 % of control, the T/C [19] was 94 % of control and the T/C [20] was 104 % of control. The T/C [21] was 98 % of control.
Cc1cc(C)[n+]([O-])c(C)c1 was tested, and the T/C [3] was 101 % of control, the T/C (dose: 60.0 mg/kg/injection, schedule: Q01DX005 (ip), vehicle: saline) was 105 % of control and the T/C [4] was 99 % of control. The T/C (dose: 120.0 mg/kg/injection, schedule: Q01DX005 (ip), vehicle: saline) was 102 % of control, the T/C [5] was 97 % of control and the T/C (dose: 240.0 mg/kg/injection, schedule: Q01DX005 (ip), vehicle: saline) was 105 % of control.
CCC(Oc1c2ccoc2c(OC)c2oc(C)cc(=O)c12)C(=O)OCCN1CCOCC1 (configuration not stated) was tested, and the T/C [22] was 102 % of control, the T/C [23] was 104 % of control and the T/C [24] was 98 % of control.
In the case of CC(O)CN=Cc1ccccc1[O-].CC(O)CN=Cc1ccccc1[O-].[Cu+2] (configuration not stated), the T/C [1] is reported as 95 % of control, the T/C [2] is reported as 94 % of control and the T/C [3] is reported as 101 % of control and 89 % of control.
Oc1c(Br)cc(Br)c2ccccc12 was tested, and the T/C [10] was 105 % of control, the T/C [11] was 114 % of control and the T/C [12] was 111 % of control.
In the case of CC(=O)OC1C(=O)C2C(CC=C3CC(O)CC(O)C32C)C2CCC(C(C)C3CC(C)C(C)(C)O3)C12C (configuration not stated), the T/C [19] is reported as 97 % of control, the T/C (dose: 100.0 mg/kg/injection, schedule: Q01DX001 (ip), vehicle: Klucel (hydroxypropylcellulose) (HPC)) is reported as 100 % of control and the T/C [20] is reported as 101 % of control. The T/C (dose: 200.0 mg/kg/injection, schedule: Q01DX001 (ip), vehicle: Klucel (hydroxypropylcellulose) (HPC)) was 97 % of control, the T/C [21] was 94 % of control and the T/C (dose: 400.0 mg/kg/injection, schedule: Q01DX001 (ip), vehicle: Klucel (hydroxypropylcellulose) (HPC)) was 96 % of control.
In the case of CCc1ccc(NS(=O)(=O)c2ccc(F)cc2)cc1, the T/C [3] is reported as 104 % of control, the T/C [4] is reported as 104 % of control and the T/C [5] is reported as 96 % of control.
With CCCCOC(=O)CSSCC(=O)OCCCC the T/C [25] was 109 % of control, the T/C [26] was 109 % of control and the T/C [27] was 109 % of control.
For c1ccc(OCC2CO2)c(OCC2CO2)c1 (configuration not stated), the T/C (dose: 1.88 mg/kg/injection, schedule: Q01DX005 (ip), vehicle: saline with Tween-80) was 100 % of control, the T/C (dose: 3.75 mg/kg/injection, schedule: Q01DX005 (ip), vehicle: saline with Tween-80) was 100 % of control and the T/C (dose: 7.5 mg/kg/injection, schedule: Q01DX005 (ip), vehicle: saline with Tween-80) was 99 % of control. For the same compound, the T/C [1] was 111 % of control and 114 % of control and 121 % of control, the T/C [28] was 104 % of control and the T/C [22] was 112 % of control. The T/C [5] was 156 % of control and 157 % of control and 201 % of control.
With Cc1nccn1Cc1ccc(Cl)cc1Cl the T/C [3] was 95 % of control and the T/C [4] was 95 % of control.
In the case of OCC1OC(/C(N=Nc2ccccc2)=N\Nc2ccccc2)C(O)C1O (configuration not stated), the T/C (dose: 6.25 mg/kg/injection, schedule: Q01DX005 (ip), vehicle: saline with Tween-80) is reported as 99 % of control, the T/C (dose: 12.5 mg/kg/injection, schedule: Q01DX005 (ip), vehicle: saline with Tween-80) is reported as 89 % of control and the T/C [24] is reported as 97 % of control.
For Cc1cc(C=C2C(=O)OC(C)(C)OC2=O)cc(C)c1O, the T/C [16] was 93 % of control, the T/C [17] was 90 % of control and the T/C [18] was 103 % of control.
In the case of CC(C)S(=O)c1ccccc1 (configuration not stated), the T/C (dose: 50.0 mg/kg/injection, schedule: Q01DX001 (ip), vehicle: saline with Tween-80) is reported as 103 % of control, the T/C (dose: 100.0 mg/kg/injection, schedule: Q01DX001 (ip), vehicle: saline with Tween-80) is reported as 95 % of control and the T/C (dose: 200.0 mg/kg/injection, schedule: Q01DX001 (ip), vehicle: saline with Tween-80) is reported as 95 % of control.
With N#CCCN(CCc1ccccn1)C(=S)Nc1cccc(C(F)(F)F)c1 the T/C [25] was 99 % of control, the T/C [26] was 101 % of control and the T/C [27] was 100 % of control. For the same compound, the T/C (dose: 400.0 mg/kg/injection, schedule: Q04DX003 (ip), vehicle: saline with Tween-80) was 101 % of control.
CCCN1CN2C(C)C(c3ccccc3)OC2C(C)(C)C1 (configuration not stated) was tested, and the T/C (dose: 50.0 mg/kg/injection, schedule: Q01DX009 (ip), vehicle: saline with Tween-80) was 112 % of control, the T/C [10] was 112 % of control and the T/C [11] was 117 % of control.
With CO/C=C/c1cc2c(cc1Br)OCO2 the T/C [3] was 105 % of control, the T/C [4] was 111 % of control and the T/C [5] was 97 % of control.
In the case of C=C1SC(=Nc2ccc(Cl)cc2)N(c2nc(Cl)nc(Cl)n2)C12CCCCC2, the T/C [19] is reported as 98 % of control, the T/C [20] is reported as 90 % of control and the T/C [21] is reported as 89 % of control.
COc1ccc(-c2c(N3CCOCC3)oc3cc(N4CCOCC4)c(O)cc23)cc1 was tested, and the T/C [28] was 100 % of control, the T/C [22] was 98 % of control and the T/C [23] was 100 % of control. For the same compound, the T/C [24] was 91 % of control.
In the case of O=c1oc2ccccc2c(O)c1C1=N/C(=N/N=C/c2ccc(Cl)cc2)SC1, the T/C (dose: 15.0 mg/kg/injection, schedule: Q01DX005 (ip), vehicle: Klucel (hydroxypropylcellulose) (HPC)) is reported as 98 % of control, the T/C (dose: 30.0 mg/kg/injection, schedule: Q01DX005 (ip), vehicle: Klucel (hydroxypropylcellulose) (HPC)) is reported as 100 % of control and the T/C (dose: 60.0 mg/kg/injection, schedule: Q01DX005 (ip), vehicle: Klucel (hydroxypropylcellulose) (HPC)) is reported as 101 % of control and 87 % of control. The T/C (dose: 60.0 mg/kg/injection, schedule: Q02DX002 (ip), vehicle: Klucel (hydroxypropylcellulose) (HPC)) was 97 % of control, the T/C (dose: 120.0 mg/kg/injection, schedule: Q02DX002 (ip), vehicle: Klucel (hydroxypropylcellulose) (HPC)) was 89 % of control and the T/C (dose: 240.0 mg/kg/injection, schedule: Q02DX002 (ip), vehicle: Klucel (hydroxypropylcellulose) (HPC)) was 93 % of control.
NC1=NC(CNC(=O)c2cccc([N+](=O)[O-])c2)N(c2cccc(Cl)c2)C(N)=N1 (configuration not stated) was tested, and the T/C [13] was 100 % of control, the T/C [14] was 107 % of control and the T/C [15] was 109 % of control.
For CN1CCN(C(=O)Nc2ccc(N=Nc3ccccc3)cc2)CC1, the T/C (dose: 12.5 mg/kg/injection, schedule: Q01DX009 (ip), vehicle: saline sonified) was 105 % of control and the T/C (dose: 25.0 mg/kg/injection, schedule: Q01DX009 (ip), vehicle: saline sonified) was 100 % of control.
Cc1cc(=O)[nH]c2cc(O)c(C(=O)O)cc12 was tested, and the T/C [16] was 93 % of control, the T/C [17] was 93 % of control and the T/C [18] was 88 % of control.
